Consider ten compounds from patent US20260007680A1, “Compounds and Their Use as PDE4 Activators” (Mironid Limited, priority 2022, published 2026).

The target of one assay is T1, PDE4D5 (Homo sapiens, UniProt Q08499).
T1 construct: Using Full-Length Human PDE4 Isoforms; Long Forms PDE4D5, PDE4C3, PDE4B1 and Short Form PDE4B2; made in house; cytosol fraction of cell lysate
The experiment in a line: PDE assay, activation of PDE4D5 long form (Experiment 1). It counts as biochemical. The following applies: 100 μM test compound; mean % increase in counts over basal activity. On the procedure:
(§1) One suitable method of detecting whether or not a compound is capable of serving as an activator of a PDE4 long form is using a two-step radio-assay procedure described in Experiment 1. In summary, the method involves incubating a PDE4 long form with a test small molecule activator, together with [^3H]-labelled cAMP to assess alterations in the breakdown of cAMP to the 5′-adenosine monophosphate (5′-AMP) product. A sample of the reaction mixture from such an incubation is subsequently treated with snake venom 5′-nucleotidase to allow conversion of the nucleotide [^3H]-labelled 5′-AMP to the uncharged nucleoside [^3H]-labelled adenosine, which can be separated and quantified to assess PDE4 activity and the effect of the test compound (Thompson, W. J. and Appleman, M. M. Biochemistry 10: 311-316, 1971, with some modifications as described in: Marchmont, R. J. and Houslay, M. D. Biochem J. 187: 381-92, 1980).
(§2) Experiment 1: Measurement of Modulation of Enzyme Activity by PDE4 Long Form Activators of the Present Invention Using Full-Length Human PDE4 Isoforms; Long Forms PDE4D5, PDE4C3, PDE4B1 and Short Form PDE4B2 • (Marchmont, R. J. and Houslay, M. D. Biochem. J. 187: 381-92, 1980)
For transient transfection of exogenous PDE4 long isoforms, HEK 293 cells were transfected with pcDNA3.1 or pDEST^TM PDE4 expression vectors using Lipofectamine LTX/Plus reagent (Invitrogen) as outlined by the manufacturer.
(§3) Where stable cell lines were generated the clonal isolates were expanded to obtain cell lines that stably expressed the full-length human PDE4 long isoforms and the full length human PDE4B2 short isoform. These were called the HEK-PDE4D5, HEK-PDE4B1 and HEK-PDE4B2 cell lines, respectively.
HEK-PDE4D5 cells were seeded out in 100 mm plates and incubated at 37° C. in an atmosphere of 5% CO2, 95% air. Cell lysates were prepared using KHEM buffer [50 mM KCl, 10 mM EGTA, 50 mM HEPES (pH 7.2), 1.92 mM MgCl2].
To prepare the cell lysates, the 100 mm plates containing the cells were placed on ice and washed with ice-cold PBS (phosphate buffered saline, pH 7.4). KHEM buffer (500 μL) was added to the cells. Cells were then scraped off the plate and triturated using a needle (BD Microlance™ 0.8, 40 mm). The lysed cells were then centrifuged at 2000 rpm for 10 minutes to remove cell debris and the supernatant (cell lysate containing recombinant PDE4D5) was transferred to a fresh tube and kept on ice.
The cell lysate containing recombinant PDE4D5 was transferred into a centrifuge tube and placed into an ultracentrifuge (BECKMAN COULTER) and spun at high speed (100,000 g) for 30 minutes at 4° C. The cytosol fraction was then collected and its protein amount determined using a BCA protein assay.
PDE assays were performed in thin walled V-bottomed 96-well plates. The assays were performed at a final concentration of 10 mM Tris/5 mM MgCl2 plus PDE4D5 cell lysate cytosol fraction, containing over-expressed PDE4D5, with and without test compound. The lysate/compound mix were incubated together for 15 min at room temperature on an orbital shaker prior to addition of [^3H] cAMP (final concentration 1 μM [^3H] cAMP; Perkin Elmer) to a final volume of 50 μL per reaction. The reactions were then incubated for 10 minutes at 30° C., terminated by heating for 2 min at 95° C. and allowed to cool. Snake venom (12.5 μL of 1 mg/mL; Crotalus atrox, Sigma) was then added and the plates were agitated and incubated for a further 15 minutes at 30° C. Dowex ion exchange resin (Sigma, chloride form, 200-400 mesh; 200 μL; prepared as a 1:1 Dowex:water stock, thoroughly re-suspended and diluted 2:1 with ethanol) was then added to each well and the plates incubated for 15 min at room temperature on an orbital shaker ensuring sufficient agitation for resin suspension (550 RPM). The reaction mixture was then transferred to a 96 well filter plate (Millipore; 0.45 μm pore size) and filtered into a receiving 96-well plate to remove the dowex suspension. […]

Another assay concerns the target T2, PDE4B2 (Homo sapiens, UniProt Q07343).
T2 construct: the full length human PDE4B2 short isoform; made in house; cytosol fraction of cell lysate, prepared as described for PDE4D5
The experiment in a line: PDE assay, PDE4B2 short form (Experiment 1). The format is biochemical. The following applies: 100 μM test compound; mean % increase in counts over basal activity. Here is the method:
as §1, §2, §3
PDE assays were performed in thin walled V-bottomed 96-well plates. The assays were performed at a final concentration of 10 mM Tris/5 mM MgCl2 plus PDE4D5 cell lysate cytosol fraction, containing over-expressed PDE4D5, with and without test compound. The lysate/compound mix were incubated together for 15 min at room temperature on an orbital shaker prior to addition of [^3H] cAMP (final concentration 1 μM [^3H] cAMP; Perkin Elmer) to a final volume of 50 μL per reaction. The reactions were then incubated for 10 minutes at 30° C., terminated by heating for 2 min at 95° C. and allowed to cool. Snake venom (12.5 μL of 1 mg/mL; Crotalus atrox, Sigma) was then added and the plates were agitated and incubated for a further 15 minutes at 30° C. Dowex ion exchange resin (Sigma, chloride form, 200-400 mesh; 200 μL; prepared as a 1:1 Dowex:water stock, thoroughly re-suspended and diluted 2:1 with ethanol) was then added to each well and the plates incubated for 15 min at room temperature on an orbital shaker ensuring sufficient agitation for resin suspension (550 RPM). The reaction mixture was then transferred to a 96 well filter plate (Millipore; 0.45 μm pore size) and filtered into a receiving 96-well plate to remove the dowex suspension. 30 μL of the filtered solution was then transferred to the wells of an Opti-plate (Perkin Elmer) 96 well assay plate and 120 μL of Microscint 40 scintillation fluid was added. The plate was then placed on an orbital shaker for 10 min at high speed (900 rpm) to mix the sample with scintillation fluid prior to quantitation using a plate based scintillation counter (Top-Count).
The % increase in counts in the presence of test compound at a particular concentration indicates the % increase in enzyme activity at that concentration.

T1 sequence (Q08499 1-745 isoform Q08499-6): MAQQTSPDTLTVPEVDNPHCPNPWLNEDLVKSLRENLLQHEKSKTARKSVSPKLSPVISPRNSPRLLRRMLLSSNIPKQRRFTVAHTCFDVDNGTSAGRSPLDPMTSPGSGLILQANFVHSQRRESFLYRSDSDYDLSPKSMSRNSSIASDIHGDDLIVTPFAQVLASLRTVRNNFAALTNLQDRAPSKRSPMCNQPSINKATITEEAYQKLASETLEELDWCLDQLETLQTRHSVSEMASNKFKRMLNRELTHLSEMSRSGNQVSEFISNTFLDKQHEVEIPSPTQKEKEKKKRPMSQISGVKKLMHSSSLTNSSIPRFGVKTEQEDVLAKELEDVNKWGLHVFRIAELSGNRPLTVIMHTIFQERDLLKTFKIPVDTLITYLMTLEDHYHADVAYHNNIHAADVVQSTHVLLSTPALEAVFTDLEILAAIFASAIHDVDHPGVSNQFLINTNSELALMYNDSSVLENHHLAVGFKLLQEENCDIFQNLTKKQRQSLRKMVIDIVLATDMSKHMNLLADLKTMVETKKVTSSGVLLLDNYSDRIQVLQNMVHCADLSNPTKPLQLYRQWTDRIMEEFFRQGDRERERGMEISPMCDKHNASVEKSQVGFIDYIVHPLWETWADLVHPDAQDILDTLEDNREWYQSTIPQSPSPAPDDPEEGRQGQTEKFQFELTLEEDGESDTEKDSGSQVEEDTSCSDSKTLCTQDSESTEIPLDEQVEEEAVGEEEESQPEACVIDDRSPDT
T2 sequence (Q07343 1-564 isoform Q07343-2): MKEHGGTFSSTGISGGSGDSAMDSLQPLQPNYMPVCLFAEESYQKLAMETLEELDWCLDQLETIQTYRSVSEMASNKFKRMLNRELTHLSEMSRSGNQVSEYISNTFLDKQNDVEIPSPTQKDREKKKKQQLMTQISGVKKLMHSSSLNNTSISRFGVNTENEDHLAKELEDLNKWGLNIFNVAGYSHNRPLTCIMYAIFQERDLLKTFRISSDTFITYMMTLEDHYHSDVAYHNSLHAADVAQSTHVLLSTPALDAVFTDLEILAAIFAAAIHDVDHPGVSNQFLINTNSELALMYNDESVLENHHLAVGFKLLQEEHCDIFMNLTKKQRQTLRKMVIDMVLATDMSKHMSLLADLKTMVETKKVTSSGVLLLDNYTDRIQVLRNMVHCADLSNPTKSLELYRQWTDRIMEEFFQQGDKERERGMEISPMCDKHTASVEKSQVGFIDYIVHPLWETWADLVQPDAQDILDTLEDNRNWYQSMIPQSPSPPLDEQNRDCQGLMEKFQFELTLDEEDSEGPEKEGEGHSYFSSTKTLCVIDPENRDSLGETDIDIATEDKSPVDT

Regarding `O=C(N[C@@H]1CCOc2ccc(Cl)cc21)c1ccc2[nH]c(-c3cccnc3)nc2c1` [Example 11, (R)—N-(6-chlorochroman-4-yl)-2-(pyridin-3-yl)-1H-benzo[d]imidazole-5-carboxamide], on PDE4D5, the activation at 100 µM came to 35%. Consider `Cc1cncc(-c2nc3ccc(C(=O)N[C@H]4CCOc5ccccc54)cn3n2)c1` [Example 36, (S)—N-(chroman-4-yl)-2-(5-methylpyridin-3-yl)-[1,2,4]triazolo[1,5-a]pyridine-6-carboxamide], for which the results for the activation at 100 µM at PDE4B2 and on PDE4D5 were 6% and 57%, respectively. Turning to `O=C(N[C@H]1CCOc2ccccc21)c1ccc2nc(-c3cccnc3)nn2c1` [Example 34, (S)—N-(chroman-4-yl)-2-(pyridin-3-yl)-[1,2,4]triazolo[1,5-a]pyridine-6-carboxamide], the activation at 100 µM on PDE4B2 amounted to 0%; at PDE4D5 it was 176%. With `CN1CCC(c2nc3cc(C(=O)N[C@H]4CCCc5ccccc54)ccc3[nH]2)CC1` [Example 15, (S)-2-(1-methylpiperidin-4-yl)-N-(1,2,3,4-tetrahvdronaphthalen-1-yl)-1H-benzo[d]imidazole-5-carboxamide], the activation at 100 µM on PDE4B2 came out at 3%; on PDE4D5, 123%.

Regarding `O=C(N[C@H]1CCOc2ccccc21)c1ccc2[nH]c(-c3cccnc3)nc2c1` [Example 8, (S)—N-(chroman-4-yl)-2-(pyridin-3-yl)-1H-benzo[d]imidazole-5-carboxamide], the activation at 100 µM on PDE4B2 is -35%; on PDE4D5, 52%. The matching figures for `O=C(N[C@H]1CCc2ccccc21)c1ccc2[nH]c(-c3cccnc3)nc2c1` [Example 10, (S)—N-(2,3-dihydro-1H-inden-1-yl)-2-(pyridin-3-yl)-1H-benzo[d]imidazole-5-carboxamide]: -35% and 46%. In the case of `Cc1ccc(-c2nc3ccc(C(=O)N[C@H]4CCOc5ccccc54)cn3n2)cn1` [Example 35, (S)—N-(chroman-4-yl)-2-(6-methylpyridin-3-yl)-[1,2,4]triazolo[1,5-a]pyridine-6-carboxamide], the activation at 100 µM was -11% at PDE4B2 and 68% on PDE4D5. With `Cc1ccc(-c2nc3ccc(C(=O)N[C@H]4CCOc5ccccc54)cn3n2)c(C)n1` [Example 39, (S)—N-(chroman-4-yl)-2-(2,6-dimethylpyridin-3-yl)-[1,2,4]triazolo[1,5-a]pyridine-6-carboxamide], the activation at 100 µM is -28% on PDE4B2 and 63% on PDE4D5. Consider `O=C(N[C@H]1CCOc2ccccc21)c1cnc2cc(-c3cccnc3)nn2c1` [Example 90, (S)—N-(chroman-4-yl)-2-(pyridin-3-yl)pyrazolo[1,5-a]pyrimidine-6-carboxamide], for which the activation at 100 µM on PDE4B2 is -8%; at PDE4D5, 99%. `Cc1ccncc1-c1nc2ccc(C(=O)N[C@H]3CCOc4ccccc43)cn2n1` [Example 37, (S)—N-(chroman-4-yl)-2-(4-methylpyridin-3-yl)-[1,2,4]triazolo[1,5-a]pyridine-6-carboxamide]: the activation at 100 µM is -24% at PDE4B2 and 127% on PDE4D5.
